Measurements from PubChem BioAssay (NCI).
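Five concentrations, 48 hours, 96-well plates. At the GI50, growth is halved. TGI marks complete inhibition of growth.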

Assays:
Assay in all cases: growth of human tumour cells (NCI), 48 h
ACHN renal = tested on: ACHN renal
BT-549 breast = tested on: BT-549 breast
EKVX NSCLC = tested on: EKVX NSCLC
HS 578T breast = tested on: HS 578T breast
NCI-H23 lung = tested on: NCI-H23 lung
NCI-H522 lung = tested on: NCI-H522 lung
NCI/ADR-RES ovarian = tested on: NCI/ADR-RES ovarian
OVCAR-3 ovarian = tested on: OVCAR-3 ovarian
OVCAR-4 ovarian = tested on: OVCAR-4 ovarian
OVCAR-5 ovarian = tested on: OVCAR-5 ovarian
OVCAR-8 ovarian = tested on: OVCAR-8 ovarian
T-47D breast = tested on: T-47D breast

SMILES	TGI (ACHN renal) [µM]	TGI (BT-549 breast) [µM]	TGI (EKVX NSCLC) [µM]	TGI (HS 578T breast) [µM]	TGI (NCI-H23 lung) [µM]	TGI (NCI-H522 lung) [µM]	TGI (NCI/ADR-RES ovarian) [µM]	TGI (OVCAR-3 ovarian) [µM]	TGI (OVCAR-4 ovarian) [µM]	TGI (OVCAR-5 ovarian) [µM]	TGI (OVCAR-8 ovarian) [µM]	TGI (T-47D breast) [µM]	GI50 (EKVX NSCLC) [µM]	GI50 (NCI-H23 lung) [µM]	GI50 (NCI/ADR-RES ovarian) [µM]	GI50 (OVCAR-3 ovarian) [µM]	GI50 (OVCAR-4 ovarian) [µM]	GI50 (OVCAR-5 ovarian) [µM]	GI50 (OVCAR-8 ovarian) [µM]	GI50 (T-47D breast) [µM]
COc1ccc(-c2cc(-c3ccco3)c(C#N)c(=S)n2C2OC(CO)C(O)C(O)C2O)cc1 (centres undefined)	> 100	> 100	> 100	> 100	> 100	> 100	> 100	> 100	> 100	> 100	> 100	–	–	–	–	–	–	–	–	–
C=CC1(c2ccc(Br)cc2)OCCCO1	> 100	–	> 100	> 100	> 100	> 100	> 100	> 100	> 100	> 100	> 100	> 100	–	–	–	–	–	–	–	–
COc1ccc(NC(C)=O)cc1N1C(=O)/C(=C\c2cc(OC)c(OC)c(OC)c2)S(=O)(=O)C1c1ccccc1 (centres undefined)	> 100	> 100	> 100	–	> 100	> 100	> 100	> 100	> 100	> 100	> 100	> 100	–	–	–	–	–	–	–	–
O=c1[nH]c2ccsc2c(=O)n1COCc1ccccc1	> 100	> 100	> 100	> 100	> 100	> 100	> 100	> 100	> 100	> 100	> 100	–	–	–	–	–	–	–	–	–
CC1=[N+]([O-])C(C)(C)N(O)C1(C)C	> 100	–	> 100	–	> 100	> 100	> 100	> 100	> 100	> 100	> 100	> 100	–	–	–	–	–	–	–	–
C/C(=C\COP(=O)(O)OP(=O)(O)O)CC/C=C(\C)CNc1ccc([N+](=O)[O-])cc1	> 100	–	> 100	> 100	> 100	> 100	> 100	> 100	> 100	> 100	> 100	> 100	–	–	–	–	–	–	–	–
C=C1CC(COc2ccc3ccc(=O)oc3c2)(c2ccccc2)OC1=O (centres undefined)	3.61	2.95	22	> 23.7	3.5	2.29	12.4	3.36	3.22	13	7.9	–	–	–	–	–	–	–	–	–
N#CC1=C(N)Nc2nc3ccccc3n2C1c1ccccc1 (centres undefined)	68.5	62.4	57.4	> 100	> 100	–	> 100	97.7	–	> 100	> 100	63.1	–	–	–	–	–	–	–	–
CCOn1cc(C2=C(c3c[nH]c4ccccc34)C(=O)NC2=O)c2ccccc21	16.4	–	29.9	–	0.47	> 33.6	< 0.01	< 0.0182	> 72.4	17.2	20.3	> 100	14.6	< 0.028	< 0.01	< 0.0117	14.6	0.398	0.0935	18.5
